# Test results taken from PubChem BioAssay AID1963980 (Molecular Pharmacology Branch, DTP, NCI, 2024).
# Tested on: 475296-252-R-J1-PDC spheroid viability
# Assay: Anticancer human tumor 475296-252-R-J1-PDC patient-derived rectal carcinoma cell line growth inhibition [PI3K]
# Settings: spheroids with HUVEC and MSC; for viability, T/C: stronger effect = lower value
# Outline: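 Combination activity was assessed by viability in multicellular tumor spheroids carrying HUVEC and MSC components. Agents were tested with PI3K inhibitors from a Cmax-based top dose (or 10 microM) downward in half-log increments.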
# [1] = curve of first compound, second compound 0.0316 µM
# [2] = curve of first compound, second compound 0.1 µM
# [3] = curve of first compound, second compound 0.316 µM
# [4] = curve of first compound, second compound 1 µM
# [5] = second compound 0.0316 µM, first compound 0.0316 µM
# [6] = second compound 0.0316 µM, first compound 0.1 µM
# [7] = second compound 0.0316 µM, first compound 0.316 µM
# [8] = second compound 0.0316 µM, first compound 1 µM
# [9] = second compound 0.0316 µM, first compound 3.16 µM
# [10] = second compound 0.0316 µM, first compound 10 µM
# [11] = second compound 0.1 µM, first compound 0.0316 µM
# [12] = second compound 0.1 µM, first compound 0.1 µM
# [13] = second compound 0.1 µM, first compound 0.316 µM
# [14] = second compound 0.1 µM, first compound 1 µM
# [15] = second compound 0.1 µM, first compound 3.16 µM
# [16] = second compound 0.1 µM, first compound 10 µM
# [17] = second compound 0.316 µM, first compound 0.0316 µM
# [18] = second compound 0.316 µM, first compound 0.1 µM
# [19] = second compound 0.316 µM, first compound 0.316 µM
# [20] = second compound 0.316 µM, first compound 1 µM
# [21] = second compound 0.316 µM, first compound 3.16 µM
# [22] = second compound 0.316 µM, first compound 10 µM
# [23] = second compound 1 µM, first compound 0.0316 µM
# [24] = second compound 1 µM, first compound 0.1 µM
# [25] = second compound 1 µM, first compound 0.316 µM
# [26] = second compound 1 µM, first compound 1 µM
# [27] = second compound 1 µM, first compound 3.16 µM
# [28] = second compound 1 µM, first compound 10 µM
# 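Further: spheroids exposed to agents for seven days before readout.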
smiles,measurement,setting,value
COc1c(OCCCN2CCOCC2)ccc2c3n(c(=NC(=O)c4cnc(N)nc4)nc12)CCN3,"viability, T/C",compound 0.00316 µM,103% [middle of 8 runs]
same,"viability, T/C",compound 0.01 µM,97.3% [middle of 8 runs]
same,"viability, T/C",compound 0.0316 µM,90.7% [middle of 8 runs]
same,"viability, T/C",compound 0.1 µM,87% [middle of 8 runs]
same,"viability, T/C",compound 0.316 µM,71.5% [middle of 8 runs]
same,"viability, T/C",compound 1 µM,68% [middle of 8 runs]
same,IC50,"compound alone, run of 06/13/2023",> 1 µM
CC1(C)CCC(Nc2ncc(C(F)(F)F)c(-c3c[nH]c4c(P(C)(C)=O)c(C#N)ccc34)n2)CN1 (stereo unspecified) + CC(Nc1ccc2c(c1)OCCn1cc(N3C(=O)OCC3C(F)F)nc1-2)C(N)=O,IC50,"curve of first compound, second compound 0.00316 µM",> 10 µM
same,IC50,"curve of first compound, second compound 0.01 µM",> 10 µM
same,IC50,[1],> 10 µM
same,IC50,[2],> 10 µM
same,IC50,[3],> 10 µM
same,IC50,[4],> 10 µM
same,"viability, T/C","second compound 0.00316 µM, first compound 0.0316 µM",96.4%
same,"viability, T/C","second compound 0.00316 µM, first compound 0.1 µM",86.1%
same,"viability, T/C","second compound 0.00316 µM, first compound 0.316 µM",98.4%
same,"viability, T/C","second compound 0.00316 µM, first compound 1 µM",116%
same,"viability, T/C","second compound 0.00316 µM, first compound 3.16 µM",174%
same,"viability, T/C","second compound 0.00316 µM, first compound 10 µM",73.9%
same,"viability, T/C","second compound 0.01 µM, first compound 0.0316 µM",94.5%
same,"viability, T/C","second compound 0.01 µM, first compound 0.1 µM",81.3%
same,"viability, T/C","second compound 0.01 µM, first compound 0.316 µM",116%
same,"viability, T/C","second compound 0.01 µM, first compound 1 µM",136%
same,"viability, T/C","second compound 0.01 µM, first compound 3.16 µM",203%
same,"viability, T/C","second compound 0.01 µM, first compound 10 µM",82.8%
same,"viability, T/C",[5],91.2%
same,"viability, T/C",[6],99.7%
same,"viability, T/C",[7],96.9%
same,"viability, T/C",[8],136%
same,"viability, T/C",[9],187%
same,"viability, T/C",[10],77.1%
same,"viability, T/C",[11],96.6%
same,"viability, T/C",[12],103%
same,"viability, T/C",[13],106%
same,"viability, T/C",[14],136%
same,"viability, T/C",[15],170%
same,"viability, T/C",[16],72.9%
same,"viability, T/C",[17],82.9%
same,"viability, T/C",[18],92.5%
same,"viability, T/C",[19],104%
same,"viability, T/C",[20],111%
same,"viability, T/C",[21],147%
same,"viability, T/C",[22],66.5%
same,"viability, T/C",[23],94.7%
same,"viability, T/C",[24],88.4%
same,"viability, T/C",[25],96.4%
same,"viability, T/C",[26],105%
same,"viability, T/C",[27],113%
same,"viability, T/C",[28],63.1%
CC(C)NCC(C(=O)N1CCN(c2ncnc3c2C(C)CC3O)CC1)c1ccc(Cl)cc1 (stereo unspecified) + CC(Nc1ncnc2nc[nH]c12)c1cc2cccc(Cl)c2c(=O)n1-c1ccccc1,IC50,[1],> 10 µM
same,IC50,[2],> 10 µM
same,IC50,[3],> 10 µM
same,IC50,[4],> 10 µM
same,IC50,"curve of first compound, second compound 3.16 µM",> 10 µM
same,IC50,"curve of first compound, second compound 10 µM",> 10 µM
same,"viability, T/C",[5],89.7%
same,"viability, T/C",[6],104%
same,"viability, T/C",[7],80.3%
same,"viability, T/C",[8],77.3%
same,"viability, T/C",[9],56.2%
same,"viability, T/C",[10],65.5%
same,"viability, T/C",[11],101%
same,"viability, T/C",[12],93.2%
same,"viability, T/C",[13],85.2%
same,"viability, T/C",[14],73.3%
same,"viability, T/C",[15],68.8%
same,"viability, T/C",[16],63.2%
same,"viability, T/C",[17],117%
same,"viability, T/C",[18],96.4%
same,"viability, T/C",[19],89.1%
same,"viability, T/C",[20],76%
same,"viability, T/C",[21],59.9%
same,"viability, T/C",[22],66.3%
same,"viability, T/C",[23],100%
same,"viability, T/C",[24],103%
same,"viability, T/C",[25],76%
same,"viability, T/C",[26],61.8%
same,"viability, T/C",[27],54.4%
same,"viability, T/C",[28],65.5%
same,"viability, T/C","second compound 3.16 µM, first compound 0.0316 µM",93.1%
same,"viability, T/C","second compound 3.16 µM, first compound 0.1 µM",85.5%
same,"viability, T/C","second compound 3.16 µM, first compound 0.316 µM",82.5%
same,"viability, T/C","second compound 3.16 µM, first compound 1 µM",76.1%
same,"viability, T/C","second compound 3.16 µM, first compound 3.16 µM",67.9%
same,"viability, T/C","second compound 3.16 µM, first compound 10 µM",50.7%
same,"viability, T/C","second compound 10 µM, first compound 0.0316 µM",98%
same,"viability, T/C","second compound 10 µM, first compound 0.1 µM",84.1%
same,"viability, T/C","second compound 10 µM, first compound 0.316 µM",94.7%
same,"viability, T/C","second compound 10 µM, first compound 1 µM",67.1%
same,"viability, T/C","second compound 10 µM, first compound 3.16 µM",59.6%
same,"viability, T/C","second compound 10 µM, first compound 10 µM",56%
